Measured values as given in ChEMBL document CHEMBL5154783, “Design, synthesis, and evaluation of novel 3-thiophene derivatives as potent fungistatic and fungicidal reagents based on a conformational restriction strategy” (Eur J Med Chem, 2022).
In brackets after ≈: the same amount, converted by molar mass.

Key:
Format in all cases: functional
Candida albicans [1] = assay: Antifungal activity against Candida albicans ATCC SC5314 assessed as fungal growth inhibition by CLSI based serial microbroth dilution method
Candida albicans [2] = assay: Antifungal activity against Candida albicans CPCC400616 assessed as fungal growth inhibition by CLSI based serial microbroth dilution method
Candida tropicalis = assay: Antifungal activity against Candida tropicalis CGMCC 2.3739 assessed as fungal growth inhibition by CLSI based serial microbroth dilution method
Cryptococcus neoformans = assay: Antifungal activity against Cryptococcus neoformans CGMCC 2.3161 assessed as fungal growth inhibition by CLSI based serial microbroth dilution method
Candida parapsilosis = assay: Antifungal activity against Candida parapsilosis GIM 2.190 assessed as fungal growth inhibition by CLSI based serial microbroth dilution method; conditions: Lodderomyces parapsilosis
Nakaseomyces glabratus = assay: Antifungal activity against Candida glabrata clinical isolate assessed as fungal growth inhibition by CLSI based serial microbroth dilution method
Pichia kudriavzevii = assay: Antifungal activity against Candida krusei GIM 2.1 assessed as fungal growth inhibition by CLSI based serial microbroth dilution method
Aspergillus fumigatus = assay: Antifungal activity against Aspergillus fumigatus CGMCC 3.7795 assessed as fungal growth inhibition by CLSI based serial microbroth dilution method
Candida albicans [3] = assay: Antifungal activity against FLC and ITC-resistant Candida albicans 17 assessed as fungal growth inhibition by CLSI based serial microbroth dilution method
Candida albicans [4] = assay: Antifungal activity against FLC-resistant Candida albicans CaR assessed as fungal growth inhibition by CLSI based serial microbroth dilution method
Candida albicans [5] = assay: Antifungal activity against FLC-resistant Candida albicans 901 assessed as fungal growth inhibition by CLSI based serial microbroth dilution method
Candida albicans [6] = assay: Antifungal activity against FLC-resistant Candida albicans 904 assessed as fungal growth inhibition by CLSI based serial microbroth dilution method
Candida albicans [7] = assay: Antifungal activity against FLC-resistant Candida albicans 632 assessed as fungal growth inhibition by CLSI based serial microbroth dilution method
Candida albicans [8] = assay: Antifungal activity against FLC-resistant Candida albicans 100 assessed as fungal growth inhibition by CLSI based serial microbroth dilution method
Candida albicans [9] = assay: Antifungal activity against FLC-resistant Candida albicans 103 assessed as fungal growth inhibition by CLSI based serial microbroth dilution method
Candida albicans [10] = assay: Antifungal activity against FLC-resistant Candida albicans 311 assessed as fungal growth inhibition by CLSI based serial microbroth dilution method

| Compound | MIC (Candida albicans [1]) | MIC (Candida albicans [2]) | MIC (Candida tropicalis) | MIC (Cryptococcus neoformans) | MIC (Candida parapsilosis) | MIC (Nakaseomyces glabratus) | MIC (Pichia kudriavzevii) | MIC (Aspergillus fumigatus) | MIC (Candida albicans [3]) | MIC (Candida albicans [4]) | MIC (Candida albicans [5]) | MIC (Candida albicans [6]) | MIC (Candida albicans [7]) | MIC (Candida albicans [8]) | MIC (Candida albicans [9]) | MIC (Candida albicans [10]) |
| --- | --- | --- | --- | --- | --- | --- | --- | --- | --- | --- | --- | --- | --- | --- | --- | --- |
| c1ccc(CC2(Cn3ccnc3)COC(c3ccc4ccccc4c3)=N2)cc1 (stereo unspecified) | > 64 µg/mL | > 64 µg/mL | > 64 µg/mL | 4 µg/mL (≈ 10.9 µM) | > 64 µg/mL | > 64 µg/mL | > 64 µg/mL | > 64 µg/mL | – | – | – | – | – | – | – | – |
| c1ccc(CC2(Cn3ccnc3)COC(c3cc(-c4ccccc4)on3)=N2)cc1 (stereo unspecified) | > 64 µg/mL | > 64 µg/mL | > 64 µg/mL | 4 µg/mL (≈ 10.4 µM) | > 64 µg/mL | > 64 µg/mL | > 64 µg/mL | 2 µg/mL (≈ 5.2 µM) | – | – | – | – | – | – | – | – |
| FC(F)(F)Oc1ccc(CC2(Cn3ccnc3)COC(c3ccc(-c4ccsc4)cc3)=N2)cc1 (stereo unspecified) | > 64 µg/mL | > 64 µg/mL | > 64 µg/mL | > 64 µg/mL | > 64 µg/mL | > 64 µg/mL | > 64 µg/mL | > 64 µg/mL | – | – | – | – | – | – | – | – |
| Cc1ccc(CC2(Cn3ccnc3)COC(c3ccc(-c4ccsc4)cc3)=N2)cc1 (stereo unspecified) | > 64 µg/mL | > 64 µg/mL | > 64 µg/mL | > 64 µg/mL | > 64 µg/mL | > 64 µg/mL | > 64 µg/mL | > 64 µg/mL | – | – | – | – | – | – | – | – |
| Fc1cccc(F)c1CC1(Cn2cnnn2)COC(c2ccc(-c3ccsc3)cc2)=N1 (stereo unspecified) | 16 µg/mL (≈ 36.6 µM) | 16 µg/mL (≈ 36.6 µM) | > 64 µg/mL | > 64 µg/mL | > 64 µg/mL | > 64 µg/mL | > 64 µg/mL | > 64 µg/mL | – | – | – | – | – | – | – | – |
| FC(F)(F)c1cccc(CC2(Cn3ccnc3)COC(c3ccc(-c4ccsc4)cc3)=N2)c1 (stereo unspecified) | > 64 µg/mL | > 64 µg/mL | > 64 µg/mL | > 64 µg/mL | > 64 µg/mL | > 64 µg/mL | > 64 µg/mL | > 64 µg/mL | – | – | – | – | – | – | – | – |
| Clc1ccccc1CC1(Cn2ccnc2)COC(c2ccc(-c3ccsc3)cc2)=N1 (stereo unspecified) | 0.125 µg/mL (≈ 0.288 µM) | 8 µg/mL (≈ 18.4 µM) | 0.5 µg/mL (≈ 1.15 µM) | > 64 µg/mL | 1 µg/mL (≈ 2.3 µM) | 16 µg/mL (≈ 36.9 µM) | > 64 µg/mL | 16 µg/mL (≈ 36.9 µM) | – | – | – | – | – | – | – | – |
| CC(C)(C)c1ccc(CC2(Cn3ccnc3)COC(c3ccc(-c4ccsc4)cc3)=N2)cc1 (stereo unspecified) | > 64 µg/mL | > 64 µg/mL | > 64 µg/mL | > 64 µg/mL | > 64 µg/mL | > 64 µg/mL | > 64 µg/mL | > 64 µg/mL | – | – | – | – | – | – | – | – |
| Fc1cccc(CC2(Cn3ccnc3)COC(c3ccc(-c4ccsc4)cc3)=N2)c1 (stereo unspecified) | > 64 µg/mL | > 64 µg/mL | > 64 µg/mL | > 64 µg/mL | > 64 µg/mL | > 64 µg/mL | 1 µg/mL (≈ 2.4 µM) | > 64 µg/mL | – | – | – | – | – | – | – | – |
| c1ccc(COc2ccc(C3=NC(Cc4ccccc4)(Cn4ccnc4)CO3)cc2)cc1 (stereo unspecified) | > 64 µg/mL | > 64 µg/mL | > 64 µg/mL | > 64 µg/mL | > 64 µg/mL | > 64 µg/mL | > 64 µg/mL | > 64 µg/mL | – | – | – | – | – | – | – | – |
| Clc1ccc(CC2(Cn3ccnc3)COC(c3ccc(-c4ccsc4)cc3)=N2)c(Cl)c1 (stereo unspecified) | > 64 µg/mL | > 64 µg/mL | > 64 µg/mL | > 64 µg/mL | > 64 µg/mL | > 64 µg/mL | > 64 µg/mL | > 64 µg/mL | – | – | – | – | – | – | – | – |
| c1ccc(CC2(Cn3ccnc3)COC(c3ccc(-c4ccoc4)cc3)=N2)cc1 (stereo unspecified) | 0.5 µg/mL (≈ 1.3 µM) | > 64 µg/mL | > 64 µg/mL | 4 µg/mL (≈ 10.4 µM) | > 64 µg/mL | > 64 µg/mL | > 64 µg/mL | > 64 µg/mL | – | – | – | – | – | – | – | – |
| c1ccc(CC2(Cn3ccnc3)COC(c3ccc(-c4ccsc4)cc3)=N2)cc1 (stereo unspecified) | 0.5 µg/mL (≈ 1.25 µM) | 0.25 µg/mL (≈ 0.626 µM) | 0.25 µg/mL (≈ 0.626 µM) | 8 µg/mL (≈ 20 µM) | 0.5 µg/mL (≈ 1.25 µM) | > 64 µg/mL | > 64 µg/mL | 16 µg/mL (≈ 40 µM) | 4 µg/mL (≈ 10 µM) | 32 µg/mL (≈ 80.1 µM) | 4 µg/mL (≈ 10 µM) | 2 µg/mL (≈ 5.01 µM) | 16 µg/mL (≈ 40 µM) | 2 µg/mL (≈ 5.01 µM) | 2 µg/mL (≈ 5.01 µM) | 4 µg/mL (≈ 10 µM) |
| Fc1cc(F)cc(CC2(Cn3ccnc3)COC(c3ccc(-c4ccsc4)cc3)=N2)c1 (stereo unspecified) | > 64 µg/mL | > 64 µg/mL | > 64 µg/mL | > 64 µg/mL | > 64 µg/mL | > 64 µg/mL | > 64 µg/mL | > 64 µg/mL | – | – | – | – | – | – | – | – |
| FC(F)(F)c1ccccc1CC1(Cn2ccnc2)COC(c2ccc(-c3ccsc3)cc2)=N1 (stereo unspecified) | 0.125 µg/mL (≈ 0.267 µM) | 8 µg/mL (≈ 17.1 µM) | 16 µg/mL (≈ 34.2 µM) | > 64 µg/mL | > 64 µg/mL | 16 µg/mL (≈ 34.2 µM) | > 64 µg/mL | 32 µg/mL (≈ 68.4 µM) | – | – | – | – | – | – | – | – |
| Fc1ccc(CC2(Cn3ccnc3)COC(c3ccc(-c4ccsc4)cc3)=N2)cc1F (stereo unspecified) | > 64 µg/mL | > 64 µg/mL | > 64 µg/mL | > 64 µg/mL | > 64 µg/mL | > 64 µg/mL | > 64 µg/mL | > 64 µg/mL | – | – | – | – | – | – | – | – |
